Where “and” joins values, the source holds several entries; their conditions need not be identical. Equal values may be shown once.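 Dose response: 5 concentrations. Exposure: 48 h. Format: 96-well plates. Endpoint: linear interpolation; highest concentration if not reached. GI50 marks 50% less growth. At the TGI there is no net growth.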
Experiments:
Experiment in all cases: DTP human tumour cell line panel, 48 h
[1] = tested on: SF-268 CNS
[2] = tested on: MDA-MB-231 breast
[3] = tested on: 786-0 renal
[4] = tested on: RPMI-8226 leukemia
[5] = tested on: OVCAR-4 ovarian
[6] = tested on: OVCAR-3 ovarian
[7] = tested on: SR leukemia
[8] = tested on: MOLT-4 leukemia

SMILES | GI50 [1] | TGI [1] | GI50 [2] | TGI [2] | GI50 [3] | TGI [3] | GI50 [4] | TGI [4] | GI50 [5] | TGI [5] | GI50 [6] | TGI [6] | GI50 [7] | TGI [7] | GI50 [8] | TGI [8]
COc1cc2ncnc(Oc3cccc(NC(=O)Nc4cc(C(C)(C)C(F)(F)F)on4)c3)c2cc1OC | 2.59 µM and 2.69 µM | 17.4 µM and > 10 µM | 1.03 µM and 0.571 µM | 4.44 µM and 7.3 µM | 2.58 µM and 4.44 µM | 14.7 µM and > 10 µM | 2.6 µM and 2.93 µM | 11.3 µM and > 10 µM | 2.15 µM and 2.8 µM | > 100 µM | 2.66 µM and 3.62 µM | 16.5 µM and > 10 µM | 2.95 µM and 2.6 µM | 11.9 µM and > 10 µM | 2.46 µM and 2.06 µM | > 29.7 µM
COc1ccc(-c2cc(/C=C/C(=O)c3ccc(N)cc3)[nH]n2)cc1 | 1.82 µM | 5.31 µM | 2.14 µM | 8.29 µM | 2.12 µM | 5.69 µM | 0.6 µM | 3.22 µM | 1.08 µM | 8.01 µM | 1.25 µM | 2.97 µM | 0.799 µM | 6.09 µM | 2.32 µM | 9.48 µM
COc1ccc2c(c1)C(=O)c1c-2c(OCCN(C)C)nc2cc(OC)c(OC)cc12 | 0.731 µM | 16.3 µM | 10.1 µM | 22.1 µM | 13 µM | 27.2 µM | 1.26 µM | 5.23 µM | 2.81 µM | > 100 µM | 2.23 µM | 15.1 µM | 1.22 µM | 14.4 µM | 0.197 µM | > 100 µM
C[C@@H]1CCc2ncc(F)cc2[C@H]2CCCN2c2ccn3ncc(c3n2)C(=O)N1 | > 100 µM | > 100 µM | 29.9 µM | > 100 µM | 63 µM | > 100 µM | 94.8 µM | > 100 µM | 62.4 µM | > 100 µM | 88.6 µM | > 100 µM | 4.38 µM | > 100 µM | 36.1 µM | > 100 µM
CC(O)[C@H](NC(=O)N[C@@H](CC(N)=O)c1nc(N2CCNCC2)no1)C(=O)O (stereo partly drawn) | > 100 µM | > 100 µM | > 100 µM | > 100 µM | > 100 µM | > 100 µM | > 100 µM | > 100 µM | > 100 µM | > 100 µM | > 100 µM | > 100 µM | > 100 µM | > 100 µM | > 100 µM | > 100 µM
COc1ccc(-c2c(N)noc2-c2cc(OC)c3c(c2)OCCO3)cc1 | 0.0481 µM | > 100 µM | 0.0851 µM | > 43.3 µM | < 0.012 µM | – | 0.0333 µM | 17.9 µM | 0.0847 µM | > 100 µM | < 0.01 µM | < 0.0126 µM | < 0.01 µM | > 52.4 µM | 0.0353 µM | 5.31 µM
COc1cccc(-c2nc3sccn3c2-c2ccnc(NCCCNS(=O)(=O)c3ccccc3)c2)c1 | 3.46 µM | > 100 µM | 3.48 µM | > 100 µM | 6.03 µM | > 100 µM | 1.61 µM | 4.26 µM | 2.87 µM | > 100 µM | 3.3 µM | > 100 µM | 3.57 µM | 92.6 µM | 2.25 µM | 7.04 µM
CCCCCC[C@H]1C(=O)O[C@H](C)[C@H](NC(=O)c2cccc(NC=O)c2OC)C(=O)O[C@@H](C)[C@@H]1OC(=O)CCC (tested in a mixture with another compound) | 13.7 µM | 36.6 µM | 13.5 µM | 34.2 µM | 13.1 µM | 27.1 µM | 12.2 µM | 37.9 µM | 12.7 µM | 29 µM | 11.1 µM | 24.9 µM | 3.64 µM | 18.8 µM | 5.64 µM | 26.6 µM
C=CC(=O)Nc1cc2c(Nc3ccc(F)c(Cl)c3)ncnc2cc1C#CC(C)(C)N1CCN(C)CC1 | 1.84 µM | 5.51 µM | 1.27 µM | 2.73 µM | 1.31 µM | 2.82 µM | 1.77 µM | 5.17 µM | 1.32 µM | 2.86 µM | 1.13 µM | 2.85 µM | 0.746 µM | 5.61 µM | 1.05 µM | 5.16 µM
CC(=O)Oc1cc2cnc3c4cc(OC(C)=O)c(OC(C)=O)cc4ccc3c2cc1OC(C)=O | 1.22 µM | 17.6 µM | 1.02 µM | > 100 µM | 2.99 µM | 16.3 µM | 1.66 µM | > 100 µM | 1.35 µM | > 100 µM | 1.01 µM | 9.5 µM | 0.629 µM | > 100 µM | 0.812 µM | > 100 µM
CS(=O)(=O)Nc1cc(-c2ccc3ncnc(Nc4cccc(Cl)c4)c3c2)cnc1Cl | 0.337 µM | 4.71 µM | 1.05 µM | 5.56 µM | 0.457 µM | 7.01 µM | 0.378 µM | 2.36 µM | 0.828 µM | 9.22 µM | 0.343 µM | 2.28 µM | 0.371 µM | 4.95 µM | 0.235 µM | 1.17 µM
COc1ccc(C2=Nn3c(nnc3-n3nc(C)cc3C)SC2)cc1 | 0.0806 µM | > 100 µM | 0.177 µM | > 100 µM | 0.146 µM | > 100 µM | 0.0605 µM | > 70.3 µM | 4.53 µM | > 100 µM | 0.0346 µM | 0.114 µM | 0.0242 µM | > 100 µM | 0.116 µM | > 100 µM
COc1cc2c3c(n(CCCNCCCNCCCN)c(=O)c2cc1OC)-c1cc2c(cc1C3=O)OCO2 | > 100 µM | > 100 µM | > 100 µM | > 100 µM | 69.5 µM | > 100 µM | > 100 µM | > 100 µM | 6.63 µM | > 100 µM | 0.879 µM | 52.6 µM | 13.6 µM | 89 µM | 21.2 µM | > 100 µM
O=C1Nc2ccc3c(c2/C1=C\c1cc2c(cc1Br)OCO2)OCO3 | 0.524 µM | 3.28 µM | 0.793 µM | 3.27 µM | 1.24 µM | 3.43 µM | 0.27 µM | 0.801 µM | 1.7 µM | 5.14 µM | 0.217 µM | 0.589 µM | 0.239 µM | > 30.8 µM | 0.489 µM | > 100 µM
